Columns and labels:
rice plants [1] = test: Multi-year analysis for 2015-2016 of field trials (17 trials); format: in vivo, Oryza sativa L.; conditions: 2015-2016, 17 trials; for Thousand grain weight (g/1000 seed): UTC 17.01; for Empty spikelets (number per 12 rice hills): UTC 5636; for Yield at 14% MC (kg/ha): UTC 6318
Description: (§1) Rice (Oryza sativa L.) of the local varieties ADT43, ADT45 and NK5251 were mechanically transplanted at four plants per hill with a plant spacing of 16 cm and a row spacing of 30 cm. All trials were performed in good level of water management. Fertilizer was applied in accordance with the best local practice across the trial area. Commercial treated seeds (no neonicotinoids as seed treatments) were used. Weed control was according to the best local practice in order to provide excellent weed control. Foliar fungicides and insecticides were applied according to common practice (no products that contain neonicotinoids or strobilurins). The trial design was a randomized bloc design. Plot size was 40 m^2 (4 m width [12 rows] by 10 m row length). Each trial had four replicates. In total, eleven trials were conducted. The compound of formula (Ia) was applied at a rate of 10 g ai/ha with small-plot hand-held boom sprayer. Application of the compound was as broadcast foliar spray in close proximity to leaf/canopy surface (25-40 cm distance from the crop). The used spray volumes were between 250 L/ha and 500 L/ha. Application was done either at panicle initiation (BBCH 30), at panicle formation (BBCH 32), at spikelet differentiation (BBCH 35), at meiosis (BBCH 39) or at heading (BBCH 51). In some experiments, the compound was applied twice (2×10 g ai/ha) at consecutive growth stages (i.e., BBCH 30+32, BBCH 32+35, BBCH 35+39, and BBCH 39+51). Tolerance to heat stress was assessed by measuring the following yield components: number of panicles per area, number of grains per panicle, percentage of ripened (filled) grains, number of tillers per area, percentage of productive tillers, grain yield per area at 14% moisture and thousand grain weight (TGVV). Further trials were conducted in the Tamil Nadu rice production area (India) in 2016 using the protocol as described above using rice variety ADT45, with treatment timings of panicle initiation (BBCH 30), panicle formation (BBCH 32), spikelet differentiation (BBCH 35) and meiosis (BBCH 39) only. The compound of formula (Ia) was applied at a rate of 10 g Al/ha. Grain yield was measured at 14% moisture content (MC).

rice plants [2] = test: Further field trials 2016, rice variety ADT45 (7 trials); format: in vivo, Oryza sativa L.; conditions: 10 g AI/ha; for Average yield increase compared to UTC (%): 7 trials 2016; for Yield at 14% MC (kg/ha): 7 trials 2016, mean daily min 25.13° C., max 34.13° C., UTC 6512
Description: as §1

COc1cccc(Nc2nc(F)nc3[nH]cnc23)c1 [formula (Ia)]
Empty spikelets, % change compared to UTC (rice plants [1]; BBCH 30 at application): −12.5%
Thousand grain weight, % change compared to UTC (rice plants [1]; BBCH 30 at application): +1.3%
Yield at 14% MC, % change compared to UTC (rice plants [1]; BBCH 30 at application): +4.1%
Thousand grain weight (g/1000 seed) (rice plants [1]; BBCH 30 at application): 17.24 g/1000 seed
Empty spikelets (number per 12 rice hills) (rice plants [1]; BBCH 30 at application): 4927 number per 12 rice hills
Yield at 14% MC (kg/ha) (rice plants [1]; BBCH 30 at application): 6583 kg/ha
Empty spikelets, % change compared to UTC (rice plants [1]; BBCH 32 at application): −9.2%
Thousand grain weight, % change compared to UTC (rice plants [1]; BBCH 32 at application): +1.4%
Yield at 14% MC, % change compared to UTC (rice plants [1]; BBCH 32 at application): +6.5%
Thousand grain weight (g/1000 seed) (rice plants [1]; BBCH 32 at application): 17.25 g/1000 seed
Empty spikelets (number per 12 rice hills) (rice plants [1]; BBCH 32 at application): 5115 number per 12 rice hills
Yield at 14% MC (kg/ha) (rice plants [1]; BBCH 32 at application): 6727 kg/ha
Empty spikelets, % change compared to UTC (rice plants [1]; BBCH 35 at application): −7.6%
Thousand grain weight, % change compared to UTC (rice plants [1]; BBCH 35 at application): +1.3%
Yield at 14% MC, % change compared to UTC (rice plants [1]; BBCH 35 at application): +6.3%
Thousand grain weight (g/1000 seed) (rice plants [1]; BBCH 35 at application): 17.23 g/1000 seed
Empty spikelets (number per 12 rice hills) (rice plants [1]; BBCH 35 at application): 5206 number per 12 rice hills
Yield at 14% MC (kg/ha) (rice plants [1]; BBCH 35 at application): 6713 kg/ha
Empty spikelets, % change compared to UTC (rice plants [1]; BBCH 39 at application): −8.3%
Thousand grain weight, % change compared to UTC (rice plants [1]; BBCH 39 at application): +1.4%
Yield at 14% MC, % change compared to UTC (rice plants [1]; BBCH 39 at application): +5.2%
Thousand grain weight (g/1000 seed) (rice plants [1]; BBCH 39 at application): 17.25 g/1000 seed
Empty spikelets (number per 12 rice hills) (rice plants [1]; BBCH 39 at application): 5170 number per 12 rice hills
Yield at 14% MC (kg/ha) (rice plants [1]; BBCH 39 at application): 6643 kg/ha
Average yield increase compared to UTC (%) (rice plants [2]; BBCH 30 at application): +3.5%
Yield at 14% MC (kg/ha) (rice plants [2]; BBCH 30 at application): 6741 kg/ha
Average yield increase compared to UTC (%) (rice plants [2]; BBCH 32 at application): +4.7%
Yield at 14% MC (kg/ha) (rice plants [2]; BBCH 32 at application): 6820 kg/ha
Average yield increase compared to UTC (%) (rice plants [2]; BBCH 35 at application): +6.4%
Yield at 14% MC (kg/ha) (rice plants [2]; BBCH 35 at application): 6931 kg/ha
Average yield increase compared to UTC (%) (rice plants [2]; BBCH 39 at application): +3.6%
Yield at 14% MC (kg/ha) (rice plants [2]; BBCH 39 at application): 6757 kg/ha

From patent US10798942B2, “Abiotic stress tolerance” (SYNGENTA PARTICIPATIONS AG, priority 2016, dated 2020)
